From the CheMixHub ionic liquid set

Test: xn = mol fraction of the nth substance listed
Conditions: for viscosity: 100 kPa; for electrical conductivity: 101 kPa

CCCCCCCCCCCCOS(=O)(=O)[O-].[Na+] + O
Conditions | electrical conductivity, 298.15 K [S/m] | viscosity, 298.15 K [mPa·s] | viscosity, 303.15 K [mPa·s] | viscosity, 308.15 K [mPa·s] | viscosity, 313.15 K [mPa·s] | viscosity, 318.15 K [mPa·s]
x1 = 1.802e-05 | – | – | 0.764 | 0.69 | 0.599 | 0.567
x1 = 3.604e-05 | – | – | 0.766 | 0.691 | 0.6 | 0.568
x1 = 5.406e-05 | – | – | 0.767 | 0.691 | 0.601 | 0.57
x1 = 6.168e-05 | 0.02352 | – | – | – | – | –
x1 = 6.588e-05 | 0.02512 | – | – | – | – | –
x1 = 7.207e-05 | – | – | 0.768 | 0.692 | 0.601 | 0.57
x1 = 7.696e-05 | 0.02928 | – | – | – | – | –
x1 = 8.42e-05 | 0.03184 | – | – | – | – | –
x1 = 9.009e-05 | – | – | 0.769 | 0.694 | 0.602 | 0.571
x1 = 9.222e-05 | 0.03505 | – | – | – | – | –
x1 = 9.755e-05 | 0.03686 | – | – | – | – | –
x1 = 0.0001029 | 0.03889 | – | – | – | – | –
x1 = 0.0001081 | – | – | 0.77 | 0.695 | 0.603 | 0.571
x1 = 0.0001261 | – | – | 0.772 | 0.696 | 0.604 | 0.572
x1 = 0.0001441 | – | – | 0.773 | 0.698 | 0.605 | 0.573
x1 = 0.0001622 | – | – | 0.774 | 0.7 | 0.605 | 0.574
x1 = 0.0001802 | – | – | 0.775 | 0.701 | 0.606 | 0.575
x1 = 0.0001982 | – | – | 0.776 | 0.702 | 0.607 | 0.576
x1 = 0.0002162 | – | – | 0.776 | 0.702 | 0.608 | 0.576
x1 = 0.0002342 | – | – | 0.777 | 0.704 | 0.609 | 0.577
x1 = 0.0002522 | – | – | 0.778 | 0.704 | 0.609 | 0.577
x1 = 0.0002702 | – | 0.867 | 0.779 | 0.705 | 0.61 | 0.578

298.15 K, frequency 0.001 MHz
Conditions | electrical conductivity [S/m]
x1 = 1.029e-05 | 0.00434
x1 = 2.57e-05 | 0.0104
x1 = 3.699e-05 | 0.0155
x1 = 5.034e-05 | 0.0213
x1 = 6.37e-05 | 0.0264
x1 = 7.295e-05 | 0.0301
x1 = 8.321e-05 | 0.0349
x1 = 9.348e-05 | 0.0392
x1 = 0.0001038 | 0.0422
x1 = 0.000113 | 0.0461
x1 = 0.0001212 | 0.051
x1 = 0.0001315 | 0.054
x1 = 0.0001418 | 0.0567
x1 = 0.00015 | 0.0607
x1 = 0.0001582 | 0.0631
x1 = 0.0001665 | 0.0649
x1 = 0.000183 | 0.0673
x1 = 0.0001944 | 0.0683
x1 = 0.0002036 | 0.0701
x1 = 0.000214 | 0.0713
x1 = 0.0002222 | 0.0737
x1 = 0.0002315 | 0.075
x1 = 0.0002408 | 0.0771
x1 = 0.0002521 | 0.0792
x1 = 0.0002625 | 0.0801
x1 = 0.0002738 | 0.0823
x1 = 0.0002862 | 0.0841
